Test results taken from PubChem BioAssay AID296 (DTP/NCI, 2004).
Values joined by “and” are separate entries in the source; they are usually repeats but may differ in a detail not shown here. Identical values can stand only once. Inconclusive results are not listed. *1 amine or outer side, *2 acyl side, *3 side chain or, on linkers, in order; H or OH if unused. Where a SMILES comes first, the peptide text is derived from it. Bridges are numbered along the chain shown (N, C = ends). Roman numbers before positions name the chains, in order. [ ]: non-standard residue; d: D form. Actinocin(1to9) = Cc1c2oc3c(C)ccc(C(=O)[*:2])c3nc-2c(C(=O)[*:1])c(N)c1=O; NMeV = CN[CH](C(=O)O)C(C)C; Aze = O=C(O)[CH]1CCN1; Sar = CNCC(=O)O

Test system: MX-1 breast xenograft, nude mice, tumor weight T/C
Assay: NCI In Vivo Anticancer Drug Screen. Data for tumor model Human Mammary Carcinoma MX-1 Xenograft (intrarenal inoculation) in NU/NU Swiss (nude) mice
Conditions: endpoint: mean tumor weight change, higher = larger tumour
Summary of the method: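 Tumor-bearing mice were treated with test compound alongside a vehicle-treated control group. Survival or tumor size was measured, and activity is expressed as the treated-group value divided by the control-group value.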

[1] = dose: 50.0 mg/kg/injection, schedule: Q01DX010 (sc), vehicle: Klucel (hydroxypropylcellulose) (HPC)
[2] = dose: 100.0 mg/kg/injection, schedule: Q01DX010 (sc), vehicle: Klucel (hydroxypropylcellulose) (HPC)
[3] = dose: 200.0 mg/kg/injection, schedule: Q01DX010 (sc), vehicle: Klucel (hydroxypropylcellulose) (HPC)
[4] = dose: 400.0 mg/kg/injection, schedule: Q04DX003 (sc), vehicle: suspension in saline
[5] = dose: 600.0 mg/kg/injection, schedule: Q04DX003 (sc), vehicle: suspension in saline
[6] = dose: 0.5 mg/kg/injection, schedule: Q04DX003 (sc), vehicle: saline + alcohol
[7] = dose: 150.0 mg/kg/injection, schedule: Q04DX003 (sc), vehicle: suspension in saline
[8] = dose: 1.0 mg/kg/injection, schedule: Q04DX003 (sc), vehicle: saline
[9] = dose: 300.0 mg/kg/injection, schedule: Q04DX003 (sc), vehicle: saline with Tween-80
[10] = dose: 600.0 mg/kg/injection, schedule: Q04DX003 (sc), vehicle: saline with Tween-80
[11] = dose: 1200.0 mg/kg/injection, schedule: Q04DX003 (sc), vehicle: saline with Tween-80
[12] = dose: 2400.0 mg/kg/injection, schedule: Q04DX003 (sc), vehicle: saline with Tween-80

N[C@@H](Cc1ccc(N(CCCl)CCCl)cc1)C(=O)O was tested, and the T/C (dose: 1.5 mg/kg/injection, schedule: Q04DX003 (sc), vehicle: suspension in saline) was 23 % of control and 34 % of control, the T/C (dose: 2.0 mg/kg/injection, schedule: Q01DX010 (ip), vehicle: saline) was -42 % of control and -36 % of control and the T/C (dose: 3.0 mg/kg/injection, schedule: Q04DX003 (sc), vehicle: suspension in saline) was 4 % of control and 8 % of control. The T/C (dose: 3.33 mg/kg/injection, schedule: Q04DX003 (ip), vehicle: saline) was -15 % of control, the T/C (dose: 3.33 mg/kg/injection, schedule: Q04DX003 (sc), vehicle: saline) was 7 % of control and the T/C (dose: 4.0 mg/kg/injection, schedule: Q01DX010 (ip), vehicle: saline) was -91 % of control. The T/C (dose: 4.0 mg/kg/injection, schedule: Q01DX010 (sc), vehicle: suspension in saline) was -100 % of control, the T/C (dose: 6.0 mg/kg/injection, schedule: Q04DX003 (sc), vehicle: suspension in saline) was -72 % of control and -58 % of control and the T/C (dose: 6.65 mg/kg/injection, schedule: Q04DX003 (ip), vehicle: saline) was -87 % of control. For the same molecule, the T/C (dose: 6.65 mg/kg/injection, schedule: Q04DX003 (sc), vehicle: saline) was -51 % of control, the T/C (dose: 12.0 mg/kg/injection, schedule: Q04DX003 (sc), vehicle: saline) was -100 % of control and the T/C (dose: 12.0 mg/kg/injection, schedule: Q04DX003 (sc), vehicle: suspension in saline) was -100 % of control.

CS(=O)(=O)OCCN(CCOS(C)(=O)=O)c1ccc(C=Nc2ccc(-c3csc(COc4ccccc4)n3)cc2)cc1 was tested, and the T/C [1] was 37 % of control, the T/C [2] was -18 % of control and the T/C [3] was -84 % of control.

COC(=O)C[C@](O)(CCC(C)(C)O)C(=O)O[C@@H]1C(OC)=C[C@]23CCCN2CCc2cc4c(cc2[C@H]13)OCO4 was tested, and the T/C (dose: 0.15 mg/kg/injection, schedule: Q04DX003 (sc), vehicle: saline) was 123 % of control, the T/C (dose: 0.31 mg/kg/injection, schedule: Q04DX003 (sc), vehicle: saline) was 93 % of control and the T/C (dose: 0.63 mg/kg/injection, schedule: Q04DX003 (sc), vehicle: saline) was 119 % of control. The T/C (dose: 1.25 mg/kg/injection, schedule: Q04DX003 (sc), vehicle: saline) was 97 % of control.

NC(=O)SCC(N)C(=O)O (stereo not drawn) was tested, and the T/C (dose: 225.0 mg/kg/injection, schedule: Q04DX003 (sc), vehicle: suspension in saline) was 73 % of control, the T/C [4] was 62 % of control and the T/C (dose: 450.0 mg/kg/injection, schedule: Q04DX003 (sc), vehicle: suspension in saline) was 49 % of control. For the same molecule, the T/C [5] was 57 % of control.

CO[C@H]1Nc2c(ccc(C)c2O)C(=O)N2C=C(/C=C/C(N)=O)C[C@@H]12 was tested, and the T/C [6] was 18 % of control and 40 % of control and the T/C (dose: 2.0 mg/kg/injection, schedule: Q04DX003 (sc), vehicle: saline + alcohol) was -100 % of control.

In the case of C[C@@H]1C[C@@H]([C@H](O)CC2CC(=O)NC(=O)C2)C(=O)[C@@H](C)C1, the T/C (dose: 37.5 mg/kg/injection, schedule: Q04DX003 (sc), vehicle: saline) is reported as 105 % of control, the T/C (dose: 75.0 mg/kg/injection, schedule: Q04DX003 (sc), vehicle: saline) is reported as 69 % of control and the T/C (dose: 150.0 mg/kg/injection, schedule: Q04DX003 (sc), vehicle: saline) is reported as 97 % of control.

For C[N+](C)(C)c1ncnc2nc[nH]c12, the T/C (dose: 50.0 mg/kg/injection, schedule: Q01DX010 (sc), vehicle: saline) was 57 % of control and the T/C (dose: 100.0 mg/kg/injection, schedule: Q01DX010 (sc), vehicle: saline) was 38 % of control.

In the case of CC(=O)OCC1OC(n2ncc(=O)[nH]c2=O)C(OC(C)=O)C1OC(C)=O (stereo not drawn), the T/C [7] is reported as 67 % of control, the T/C (dose: 300.0 mg/kg/injection, schedule: Q04DX003 (sc), vehicle: suspension in saline) is reported as 112 % of control and the T/C [5] is reported as 78 % of control.

For C/C=C1\C[C@@H]2C(OC)Nc3cc(O)c(OC)cc3C(=O)N2C1 (stereo partly drawn), the T/C [8] was 78 % of control, the T/C (dose: 2.0 mg/kg/injection, schedule: Q04DX003 (sc), vehicle: suspension in saline) was 23 % of control and 31 % of control and the T/C (dose: 4.0 mg/kg/injection, schedule: Q04DX003 (sc), vehicle: saline) was 7 % of control and 26 % of control. For the same molecule, the T/C (dose: 4.0 mg/kg/injection, schedule: Q04DX003 (sc), vehicle: suspension in saline) was 1 % of control and 3 % of control and the T/C (dose: 8.0 mg/kg/injection, schedule: Q04DX003 (sc), vehicle: suspension in saline) was -71 % of control.

With CC/C(=C(\c1ccccc1)c1ccc(OCCN(C)C)cc1)c1ccccc1 the T/C (dose: 25.0 mg/kg/injection, schedule: Q01DX010 (sc), vehicle: Klucel (hydroxypropylcellulose) (HPC)) was 171 % of control, the T/C [1] was 178 % of control and the T/C [2] was 83 % of control. The T/C (dose: 100.0 mg/kg/injection, schedule: Q04DX003 (sc), vehicle: suspension in saline) was 61 % of control, the T/C [3] was 240 % of control and the T/C (dose: 200.0 mg/kg/injection, schedule: Q04DX003 (sc), vehicle: suspension in saline) was 68 % of control. For the same molecule, the T/C [4] was 89 % of control and the T/C (dose: 800.0 mg/kg/injection, schedule: Q04DX003 (sc), vehicle: suspension in saline) was 73 % of control.

In the case of COC1=NCN=C2SC=C(N)N=C12, the T/C (dose: 37.5 mg/kg/injection, schedule: Q04DX003 (sc), vehicle: suspension in saline) is reported as 50 % of control, the T/C (dose: 75.0 mg/kg/injection, schedule: Q04DX003 (sc), vehicle: suspension in saline) is reported as 30 % of control and the T/C [7] is reported as 43 % of control.

In the case of O=S(=O)(c1ccccc1)N1CN2CCN(C2)C1, the T/C (dose: 200.0 mg/kg/injection, schedule: Q04DX003 (sc), vehicle: saline with Tween-80) is reported as 58 % of control, the T/C (dose: 400.0 mg/kg/injection, schedule: Q04DX003 (sc), vehicle: saline with Tween-80) is reported as 81 % of control and the T/C (dose: 800.0 mg/kg/injection, schedule: Q04DX003 (sc), vehicle: saline with Tween-80) is reported as 65 % of control. For the same molecule, the T/C (dose: 1600.0 mg/kg/injection, schedule: Q04DX003 (sc), vehicle: saline with Tween-80) was 48 % of control.

In the case of C=CCOCC1CO1 (stereo not drawn), the T/C (dose: 300.0 mg/kg/injection, schedule: Q04DX003 (sc), vehicle: saline) is reported as 72 % of control.

With COC1OC(CO)C(O)C(NC(=O)N(C)N=O)C1O (stereo not drawn) the T/C (dose: 225.0 mg/kg/injection, schedule: Q04DX003 (sc), vehicle: saline) was 45 % of control, the T/C (dose: 900.0 mg/kg/injection, schedule: Q04DX003 (sc), vehicle: saline) was 18 % of control and 20 % of control (2×) and the T/C (dose: 1800.0 mg/kg/injection, schedule: Q04DX003 (sc), vehicle: saline) was 3 % of control and 4 % of control.

For NC(=S)N/N=C/c1ccc(OC(=O)COc2ccccc2)cn1, the T/C [9] was 101 % of control, the T/C [10] was 103 % of control and the T/C [11] was 76 % of control.

For O=c1cnn(C2OC(CO)C(O)C2O)c(=O)[nH]1 (stereo not drawn), the T/C (dose: 200.0 mg/kg/injection, schedule: Q01DX010 (sc), vehicle: saline) was 79 % of control and the T/C (dose: 400.0 mg/kg/injection, schedule: Q01DX010 (sc), vehicle: saline) was 77 % of control.

With COCCCNC1=C(C#N)C(=O)NC(c2cccc([N+](=O)[O-])c2)S1 (stereo not drawn) the T/C [9] was 96 % of control, the T/C [10] was 101 % of control and the T/C [11] was 56 % of control. For the same molecule, the T/C [12] was 95 % of control.

With CC1(C)CC2(C)OC2C2(C1)N=NC(=Nc1ccccc1)O2 (stereo not drawn) the T/C [9] was 79 % of control, the T/C [10] was 81 % of control and the T/C [11] was 88 % of control. The T/C [12] was 81 % of control.

C/C(=N\N=C(/[Se])N1CC2CCC(CC2)C1)c1ccccn1 was tested, and the T/C (dose: 25.0 mg/kg/injection, schedule: Q04DX003 (sc), vehicle: Klucel (hydroxypropylcellulose) (HPC)) was 106 % of control and the T/C (dose: 50.0 mg/kg/injection, schedule: Q04DX003 (sc), vehicle: Klucel (hydroxypropylcellulose) (HPC)) was 110 % of control.

For Cc1c2oc3c(C)ccc(C(=O)NC4C(=O)NC(C(C)C)C(=O)N5CCCC5C(=O)N(C)CC(=O)N(C)C(C(C)C)C(=O)OC4C)c3nc-2c(C(=O)NC2C(=O)NC(C(C)C)C(=O)N3CCC3C(=O)N(C)CC(=O)N(C)C(C(C)C)C(=O)OC2C)c(N)c1=O (stereo not drawn) (I: TV[Aze][Sar][NMeV] / II: TVP[Sar][NMeV]; ester I:1-I:C, II:1-II:C; linker I:N-II:N via Actinocin(1to9); configuration not given here), the T/C (dose: 0.25 mg/kg/injection, schedule: Q04DX003 (sc), vehicle: saline + alcohol) was 53 % of control, the T/C [6] was 12 % of control and the T/C (dose: 0.5 mg/kg/injection, schedule: Q04DX003 (sc), vehicle: saline) was 112 % of control. For the same molecule, the T/C (dose: 1.0 mg/kg/injection, schedule: Q04DX003 (sc), vehicle: saline + alcohol) was -80 % of control, the T/C [8] was 47 % of control and the T/C (dose: 2.0 mg/kg/injection, schedule: Q04DX003 (sc), vehicle: saline) was 40 % of control.
